From paper PMC10804683, “Identification of the pyridoxal 5′‐phosphate allosteric site in human pyridox(am)ine 5′‐phosphate oxidase” (Protein Science : A Publication of the Protein Society, 2024)
Changes are numbered by the printed parent chain. Entries after “also recorded” stand apart in the source; their conditions may differ.

Key:
[1] = biological target: T1, human PNPO F48A/E50L/R161C/R258L variant (Homo sapiens, UniProt Q9NVS9, E50L/F48A/R161C/R258L); assay: PLP binding by DSF, F48A/E50L/R161C/R258L
T1 construct: a main form corresponding to the entire protein; made in house; host or cells: E. coli BL21(DE3)
T1 sequence (Q9NVS9 1-261 F48A/E50L/R161C/R258L): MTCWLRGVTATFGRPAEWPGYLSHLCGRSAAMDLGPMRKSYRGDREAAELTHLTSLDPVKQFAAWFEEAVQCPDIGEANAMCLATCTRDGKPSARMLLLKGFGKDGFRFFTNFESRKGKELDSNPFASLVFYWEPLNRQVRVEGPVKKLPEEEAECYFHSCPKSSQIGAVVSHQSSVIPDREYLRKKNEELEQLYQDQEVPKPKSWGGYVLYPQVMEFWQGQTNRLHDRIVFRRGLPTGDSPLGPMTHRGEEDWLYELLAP
Text: (§1) PLP binding to PNPO can be detected and quantitatively measured using differential scanning fluorimetry (DSF) and also by measuring FMN fluorescence changes. We had previously attributed DSF changes to PLP binding at the active site, while FMN fluorescence changes were attributed to PLP binding at the allosteric site (Barile et al., [2019], [2020]). Previous experiments carried out with the PNPO R161C variant, affecting a residue that is essential for substrate binding and catalysis (and therefore also for PLP binding at the active site), confirms that DSF measurements only report PLP binding at the active site (Barile et al., [2021]; Table 1). The dissociation constant values obtained with DSF are almost the same for the three variants and doubled with respect to the wild type enzyme (Figure 2, Table 1). This behavior reflects the decrease of affinity of these variants for the substrates compared to the wild type PNPO. We expected to observe no FMN fluorescence changes upon titration of the variants with PLP. However, this was not the case, and the dissociation constant values obtained by observing the FMN fluorescence emission were only up to threefold larger in the variants with respect to wild type PNPO (Figure 3). […] To check the second possibility, we measured intrinsic fluorescence changes of wild type and variant apo‐forms (i.e., without FMN) upon PLP titration. […]

[2] = biological target: T2, human PNPO F48A variant (holo-enzyme) (Homo sapiens, UniProt Q9NVS9, F48A); assay: PLP binding by FMN fluorescence changes, holo F48A; settings: 100 nM enzyme, read-out: PLP binding KD^FLUO
T2 construct: a main form corresponding to the entire protein; made in house; host or cells: E. coli BL21(DE3)
T2 sequence (Q9NVS9 1-261 F48A): T1 sequence (Q9NVS9 1-261 F48A/E50L/R161C/R258L) with L50E, C161R, L258R
Text: as §1, with “The dissociation constant values obtained with DSF are almost the same for the three variants and doubled with respect to the wild type enzyme (Figure 2, Table 1). This behavior reflects the decrease of affinity of these variants for the substrates compared to the wild type PNPO.” left out
(§2) Analyses of PLP binding, based on FMN fluorescence increase observed upon binding of PLP to PNPO, were performed as described in Barile et al. ([2020]). […] Emission spectra were recorded from […], with excitation and emission slits set at 3 and 5 nm, respectively. […]

apo-PNPO F48A/E50L/R258L = biological target: T3, apo-PNPO F48A/E50L/R258L (Homo sapiens, UniProt Q9NVS9, E50L/F48A/R258L); assay: PLP binding by intrinsic fluorescence, apo triple variant; settings: excitation 280 nm, 100 nM enzyme
T3 construct: a main form corresponding to the entire protein; made in house; host or cells: E. coli BL21(DE3)
T3 sequence (Q9NVS9 1-261 F48A/E50L/R258L): T1 sequence (Q9NVS9 1-261 F48A/E50L/R161C/R258L) with C161R
Text: as §1, with “The dissociation constant values obtained with DSF are almost the same for the three variants and doubled with respect to the wild type enzyme (Figure 2, Table 1). This behavior reflects the decrease of affinity of these variants for the substrates compared to the wild type PNPO.” left out
as §2

PLP binding KD^DSF [1]: No binding | Kd [2]: 1460 ± 90 nM
Structure (SMILES): Cc1ncc(COP(=O)(O)O)c(C=O)c1O [PLP, pyridoxal 5′‐phosphate]
Apo-enzyme PLP binding KD^FLUO (apo-PNPO F48A/E50L/R258L): no change in fluorescence was observed; also recorded: No binding
